{"source": "patent EP2837390A1", "about": "“Combined Pharmaceutical Preparation for Use in Treating Neuromuscular Disorders” (Universitäts-Kinderspital beider Basel, priority 2013, dated 2015)", "origin": "cited, not measured here", "tested_on": "mdx mice model", "details": "long term supplementation for 17-months", "data": [{"compound": "N=C(N)NCCC[C@H](N)C(=O)O", "note": "[L-arginine]", "values": [{"measurement": "muscle fibrosis", "result": "increased"}, {"measurement": "muscle function", "result": "worsened"}, {"measurement": "skeletal deformities", "result": "increased"}]}]}
